The source of these data is publication PMC11435220, “Anticancer Activity of Imidazolyl Gold(I/III) Compounds in Non-Small Cell Lung Cancer Cell Lines” (Pharmaceuticals, 2024).

For one series, the system named is H460. Nature of the series: MTT viability assay, H460. It counts as cell-based, human. The following applies: mean ± span, 48 h treatment, cell line with KRAS mutation. The method, then: (§1) NSCLC cell lines were obtained from the Hamon Center for Therapeutic Oncology Research (UT Southwestern Medical Center). IMR-90 human lung fibroblasts were from ATCC (CC-186). All cell lines were maintained and treated in RPMI medium (Cytiva (Shanghai, China), #SH30027), supplemented with 10% heat-inactivated FBS (Millipore Sigma (Darmstadt, Germany), F0394).
(§2) 5000–10,000 cells/0.1 mL/well were seeded in 96-well plates to achieve 70% confluence after 24 h. All drug stock solutions were prepared fresh in DMSO at a concentration of 10 mM. The day after cell plating, we added 0.1 mL of medium containing the appropriate drug dilutions. After 48 h of treatment, 10 μL of MTT solution (5 mg/mL) was added to each well. After 4 h incubation, the medium was aspirated, and the formazan salts dissolved in 200 μL DMSO/well for 10 min at 37 °C. The absorbance was read at 570 nm (OD 570 nm). Data are represented as mean ± SD of two independent experiments.
(§3) Statistical and data analysis was performed using GraphPad Prism (v10). IC50 values were calculated using a three-parameter non-linear regression model with log(inhibitor) vs. response. For the TxrR activity statistics, the groups were compared using a two-way ANOVA followed by Dunnett’s multiple comparisons with alpha = 0.05. The correlation between IC50 values and TxrR activity was achieved using Pearson correlation with alpha = 0.05.

For the next series, the system named is H522. Nature of the series: MTT viability assay, H522. It counts as cell-based, human. The settings on record: mean ± span, 48 h treatment, cell line without KRAS mutation. The method, then: as §1, §2, §3
Series [1] relates to human NSCLC cell lines with KRAS mutations. Nature of the series: MTT assay, average across NSCLC cell lines with KRAS mutations. The class given is cell-based. The following applies: 48 h, read-out: IC50 * averaged values. Here is the method: as §1, §2, §3
The test system of the next series is H1993. Nature of the series: MTT viability assay, H1993. The class given is cell-based, human. The settings on record: mean ± span, 48 h treatment, cell line without KRAS mutation. The method, then:
as §1, §2, §3
A general note: Formazan colour is commonly taken as a measure of viable cells.

Series [2] relates to human NSCLC cell lines without KRAS mutations. Nature of the series: MTT assay, average across NSCLC cell lines without KRAS mutations. The class given is cell-based. The settings on record: average across cell lines without KRAS mutations (H522, H661, H1395, H1993), 48 h, read-out: IC50 * averaged values. The method, then:
as §1, §2, §3

The next series relates to H661. Nature of the series: MTT viability assay, H661. The class given is cell-based, human. The settings on record: mean ± span, 48 h treatment, cell line without KRAS mutation. The method, then: as §1, §2, §3
The next series relates to A549. Nature of the series: MTT viability assay, A549. The class given is cell-based, human. The following applies: mean ± span, 48 h treatment, cell line with KRAS mutation. The method, then:
as §1, §2, §3

The subject of series [3] is TrxR in H522 cell lysates. Nature of the series: Thioredoxin reductase activity in lysates of treated H522 cells. It counts as cell-based, human. The following applies: for Mean Diff. TrxR activity vs. veh: H522 lysate, 24 h treatment at 5 μM. Here is the method:
(§4) The enzymatic activity of TrxR in the A549 and H522 cell lysates was measured using the TrxR assay Kit (Abcam ab83463) following the manufacturer’s instructions. This kit is based on the TxrR-mediated reduction of the colorless DTNB into TNB2—(yellow). Briefly, cells were plated to reach 70% confluence on a 100-mm dish in one day. They were treated with 5 μM of the gold compounds or the equivalent quantity of DMSO for 24 h. Then, cells were washed in PBS 1X, detached, and lysed in 100 μL of cold TrxR assay buffer supplemented with the Proteinase Inhibitor Cocktail. 20 μg and 40 μg of total proteins were used for the A549 and the H522, respectively. The DTNB substrate was added to samples with or without TrxR inhibitor (provided with the kit) in 96-well plates. The OD412 was measured soon after the substrate addition (A1) and then after 25, 60, 90, and 110 min (An) at 25 °C using a FLUOstar Omega Microplate Reader (BGM Labtech, Chicago, IL, USA). Data analysis was performed following the manufacturer’s instructions. The OD of TNB2, generated by TrxR in every condition, is:ΔA412 nm = (AnAB − AnINH) − (AB − A1INH) where AB is the assay buffer, and INH is the inhibitor. The TrxR activity is:(2) ΔB/Tn−T1×mg of protein lysate×sample dilution factor=(nmol/min)/mg=mU/mg where ΔB is the TNB amount calculated applying ΔA412 nm to TNB standard curve (in nmol), T1 is the time of the first reading (A1AB, and A1INH) (in min), Tn is the time of the second reading (AnAB and AnINH) (in min). The residual TxrR activity (%) was calculated by normalizing the TxrR activity for each compound with the matching vehicle values at every n time point.
as §3

In another series the test system is HCC-44. Nature of the series: MTT viability assay, HCC-44. It counts as cell-based, human. The settings on record: mean ± span, 48 h treatment, cell line with KRAS mutation. The method, then: as §1, §2, §3
Another series relates to H1395. Nature of the series: MTT viability assay, H1395. The class given is cell-based, human. The following applies: mean ± span, 48 h treatment, cell line without KRAS mutation. The method, then:
as §1, §2, §3

Another series has as its system H1792. Nature of the series: MTT viability assay, H1792. The class given is cell-based, human. The settings on record: mean ± span, 48 h treatment, cell line with KRAS mutation. Here is the method: as §1, §2, §3
Series [4] in a line: Solution stability by UV-visible spectra over time. The class given is physicochemical. The following applies: UV-visible spectra over time; DMSO, methanol, PBS buffered solutions. The method, then: Stability studies were led by acquiring UV−visible spectra of 100 µM DMSO or methanol solutions of compounds 1∓8 over time (Figures S19–S29 in Supplementary Materials). […] The stability of NHC-AuX3 complexes (with X = Cl, compounds 1 and 2, with X = Br, compounds 5 and 6) was affected by the nature of both the substituents on the imidazolyl ligand and of the halide, showing a small decrease of the UV bands maxima in an hour. By analyzing the spectral data of compounds 1 and 2, a percent concentration reduction of about 4–5% was estimated within an hour, grading them eligible for biological tests. The partial instability may be attributed to the formation of cationic bis-carbeneAuCl2 species (Equation (1)), with the [bis-carbeneAuX2]^+ and the respective AuX2^−; these ions were actually detected as positive and negative ions in the ESI-MS spectra (see Figures S12 and S13). […] Additionally, the (+)ESI MS spectrum of the acetonitrile solution of compound 6 is particularly rich in positive ions (Figure S16). As concerns the mono-/bis-carbene formation, it is likely initiated by the large trans effect of the carbene ligands, which induces the chemical lability on the trans halide, triggers […], the formation of bis-carbeneAu(III) species, and AuX2^− or AuX4^− anions:2[NHC-AuX3] ⇔ [[(NHC)2AuX2] [AuX2^−] + 2X(1) […]
The stability of the samples 1-8 in DMSO solution was assayed by UV-visible spectroscopy. Spectra were acquired using the Shimadzu UV-2700i spectrophotometer, equipped with the Shimadzu CPS-100 Peltier, at 293 K. Unless diversely specified, 100 µM DMSO solutions of the 1-8 compounds were prepared and spectra were acquired each 10 minutes for a total of 60 minutes. The spectra obtained are reported as following.
Figure S19. UV-Visible Spectra acquired for complex 1.
Figure S20. UV-Visible Spectra acquired for complex 2. […]

Another series concerns H1355. Nature of the series: MTT viability assay, H1355. It counts as cell-based, human. The settings on record: mean ± span, 48 h treatment, cell line with KRAS mutation. Here is the method: as §1, §2, §3
In series [5] the test system is TrxR in A549 cell lysates. Nature of the series: Thioredoxin reductase activity in lysates of treated A549 cells. It counts as cell-based, human. The following applies: for Mean Diff. TrxR activity vs. veh: A549 lysate, 24 h treatment at 5 μM. Here is the method: as §4, §3

Structures are written as SMILES.

Turning to `C[n+]1ccn(Cc2ccccc2)[c]1[Au-]([Br])([Br])[Br]` [Compound 6], the IC50 in the series with H460 was 37 ± 1.8 µM; with H522, 55 ± 1.9 µM; in series [1], 29 µM; with H1993, 5.6 ± 0.76 µM; in series [2], 37 µM; in the series on H661, 26 ± 1.5 µM. Besides, the IC50 was 13 ± 1.03 µM in the series with A549; 19 ± 1.4 µM with HCC-44; 62 ± 2.4 µM with H1395; 15 ± 1.1 µM in the series with H1792; 59 ± 1.7 µM in the series with H1355. For the same molecule, the “TrxR activity reduction / inhibition” value in series [3] (H522, 24 h treatment, stated for both cell lines) is on record as 30–40%; in series [5] (A549, 24 h treatment, stated for both cell lines), 30–40%. The “Mean Diff. TrxR activity vs. veh” value in [3] (reading at 25 min) is −31.68%; in series [3] (reading at 60 min) it was −37.22%; in series [3] (reading at 90 min), −39.82%; in series [3] (reading at 110 min) it was −46.06%; in [5] (reading at 25 min), −17.37%; in series [5] (reading at 60 min), −2.183%. Further, the “Mean Diff. TrxR activity vs. veh” value in series [5] (reading at 90 min) was −31.09%; in series [5] (reading at 110 min), −38.86%. In [4], the “stability in solution” value is “least stable in solution”.

As usually defined, the IC50 is the midpoint of a concentration-inhibition curve.
